Reference: PubChem BioAssay AID1963959 (Molecular Pharmacology Branch, DTP, NCI, 2024)

Test system: T-47D spheroids with HUVEC/MSC, viability
Assay: Anticancer human tumor T-47D cell line growth inhibition [PI3K];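 further: spheroids exposed to agents for seven days before reading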;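 on viability, T/C: percent of DMSO vehicle control luminescence so 100% = untreated growth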
Conditions: for IC50: curve of first compound; for viability, T/C: stronger effect = lower value
Outline: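 Viability of mixed-cell spheroids was determined after exposure to pairwise combinations, one partner being inavolisib, alpelisib, duvelisib or copanlisib. Highest tested concentration matched clinical Cmax where known and 10 microM where not, descending in half-log steps.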

`C=CC(=O)N1CCN(c2nc(=O)n(-c3c(C)ccnc3C(C)C)c3nc(-c4c(O)cccc4F)c(F)cc23)C(C)C1` (configuration not stated) + COc1c(OCCCN2CCOCC2)ccc2c3n(c(=NC(=O)c4cnc(N)nc4)nc12)CCN3 was tested, and the IC50 (second compound 0.00316 µM) was over 10 µM, the IC50 (second compound 0.01 µM) was over 10 µM and the IC50 (second compound 0.0316 µM) was over 10 µM. For the same compound, the IC50 (second compound 0.1 µM) was under 0.0316 µM, the IC50 (second compound 0.316 µM) was under 0.0316 µM and the IC50 (second compound 1 µM) was under 0.0316 µM. The viability, T/C (second compound 0.00316 µM, first compound 0.0316 µM) was 100%, the viability, T/C (second compound 0.00316 µM, first compound 0.1 µM) was 124% and the viability, T/C (second compound 0.00316 µM, first compound 0.316 µM) was 106%. The viability, T/C (second compound 0.00316 µM, first compound 1 µM) was 108%, the viability, T/C (second compound 0.00316 µM, first compound 3.16 µM) was 101% and the viability, T/C (second compound 0.00316 µM, first compound 10 µM) was 113%. For the same compound, the viability, T/C (second compound 0.01 µM, first compound 0.0316 µM) was 101%, the viability, T/C (second compound 0.01 µM, first compound 0.1 µM) was 91.6% and the viability, T/C (second compound 0.01 µM, first compound 0.316 µM) was 96.1%. The viability, T/C (second compound 0.01 µM, first compound 1 µM) was 91%, the viability, T/C (second compound 0.01 µM, first compound 3.16 µM) was 138% and the viability, T/C (second compound 0.01 µM, first compound 10 µM) was 104%. For the same compound, the viability, T/C (second compound 0.0316 µM, first compound 0.0316 µM) was 84.5%, the viability, T/C (second compound 0.0316 µM, first compound 0.1 µM) was 67.6% and the viability, T/C (second compound 0.0316 µM, first compound 0.316 µM) was 74.6%. It also gave a viability, T/C (second compound 0.0316 µM, first compound 1 µM) of 109%, a viability, T/C (second compound 0.0316 µM, first compound 3.16 µM) of 95.6% and a viability, T/C (second compound 0.0316 µM, first compound 10 µM) of 90.6%. For the same compound, the viability, T/C (second compound 0.1 µM, first compound 0.0316 µM) was 46.2%, the viability, T/C (second compound 0.1 µM, first compound 0.1 µM) was 51% and the viability, T/C (second compound 0.1 µM, first compound 0.316 µM) was 41.1%. For the same compound, the viability, T/C (second compound 0.1 µM, first compound 1 µM) was 45.1%, the viability, T/C (second compound 0.1 µM, first compound 3.16 µM) was 48.3% and the viability, T/C (second compound 0.1 µM, first compound 10 µM) was 53.1%. For the same compound, the viability, T/C (second compound 0.316 µM, first compound 0.0316 µM) was 21.3%, the viability, T/C (second compound 0.316 µM, first compound 0.1 µM) was 18.4% and the viability, T/C (second compound 0.316 µM, first compound 0.316 µM) was 18.2%. The viability, T/C (second compound 0.316 µM, first compound 1 µM) was 21%, the viability, T/C (second compound 0.316 µM, first compound 3.16 µM) was 20.9% and the viability, T/C (second compound 0.316 µM, first compound 10 µM) was 35%. The viability, T/C (second compound 1 µM, first compound 0.0316 µM) was 6.05%, the viability, T/C (second compound 1 µM, first compound 0.1 µM) was 6.58% and the viability, T/C (second compound 1 µM, first compound 0.316 µM) was 5.84%. It also gave a viability, T/C (second compound 1 µM, first compound 1 µM) of 9.25%, a viability, T/C (second compound 1 µM, first compound 3.16 µM) of 11.6% and a viability, T/C (second compound 1 µM, first compound 10 µM) of 19.2%.
